Measured values as given in patent US3956312A, “Indazole-3-carboxylic acid hydrazides and a process for the preparation thereof” (Egyt Gyogyszervegyeszeti Gyar, priority 1973, dated 1976).
Structures can show the parent of a compound that is named as a salt. Where two headings read alike, the source gives them in different places.

What was measured:
[1] = spasmolytic effect in vivo, carbon suspension method of Stickney; conditions: mouse, in vivo, ip; Table 1, spasmolytic effect, white mice, intraperitoneal; read-out: Therapeutical index LD50/ED50
Experimental: (§1) The spasmolytic effect was tested under in vivo conditions on white mice, by the carbon suspension method of Stickney. The active agents were administered intraperitoneally, and the total length of the small intestines as well as the length of the intestines filled with carbon were measured. […] The ED50 values were calculated according to the LitchfieldWilcoxon method from the thus-transformed values. In order to evaluate the safety margin of the active agents, the acute LD50 values were also determined on white mice in intraperitoneal administration. The observation periods in the toxicity tests were 48 hours, and the calculation was performed according to the LitchfieldWilcoxon method, also taking into consideration the perished animals.

[2] = test system: small intestines; experiment: as above; conditions: Mus musculus, ip; white mice, intraperitoneal, Litchfield-Wilcoxon
Experimental: as §1

[3] = acute toxicity (LD50), intraperitoneal, 48 hours observation; conditions: mouse, in vivo, ip, read-out: Toxicity LD5
Experimental: as §1

[4] = antidepressant activity, inhibition of tetrabenazine ptosis; assay type: in vivo, mice; conditions: mouse, in vivo; Table 4, antidepressant activity, mice, oral; read-out: Therapeutical index
Experimental: (§2) The antidepressant activity was examined on mice, after oral administration. Tetrabenazine was administered to the animals in a dosage provoking maximum ptosis, and the inhibiting activity of the tested compounds was measured.

[5] = test system: tetrabenazine ptosis; experiment: as above; assay type: in vivo, mice; conditions: for ED50: Mus musculus, mice, oral, tetrabenazine ptosis
Experimental: as §2

[6] = toxicity LD50 listed with the antidepressant activity (Table 4); conditions: mouse, in vivo
[7] = test system: gastric acid secretion; experiment: inhibition of gastric acid secretion, Shay's method; assay type: in vivo, Wistar rats; conditions: 5 hours
[8] = test system: gastric acid secretion; experiment: as above; assay type: in vivo, Wistar rats; conditions: 5 hours; remark: listed apart in the source
Experimental: The animals were operated according to Shay's method, and the substance to be tested was administered intraperitoneally. After 5 hours the animals were sacrified, and the volume of gastric juice, the amount of free hydrochloric acid, and the total acidity were determined.

[9] = toxicity on mice p.o. (Table 2); conditions: mouse, in vivo, po
[10] = test system: Reserpine-ulcer; experiment: antiulcer activity, Reserpine-ulcer; assay type: in vivo, rats; conditions: related to the controls averages
Experimental: (§3) The antiulcer activity of 5,6-dimethoxyindazole-3-carboxylic acid-benzylhydrazide was determined on rats.

[11] = test system: Shay ulcer; experiment: antiulcer activity, Shay ulcer; assay type: in vivo, rats; conditions: related to the controls averages
Experimental: as §3
**Shay ulcer (Shay, H., Komarov, S.A., Fels, S.S., Meranze, D.,
Gruenstein, M., Siplet, H.: Gastroenterology 5, 45 /1945/)

[12] = white mice, intraperitoneal, 48 hours observation

COc1cc2[nH]nc(C(=O)NNCc3ccccc3O)c2cc1OC [Compound 32, 5,6-dimethoxyindazole-3-carboxylic acid-2'-hydroxybenzylhydrazide]
selectivity ratio [1]: 120 | ED50 [2]: 25 mg/kg | LD50 at 48 h [3]: > 3000 mg/kg | selectivity ratio [4]: 136 | ED50 [5]: 22 mg/kg | therapeutical width ([5]; compared with amitryptiline): significantly exceeds that of the well known agent, amitryptiline | LD50 [6]: > 3000 mg/kg

COc1ccc(Cc2nccc3cc(OC)c(OC)cc23)cc1OC [papaverine, reference compound]
selectivity ratio [1]: 2.9 | ED50 [2]: 46 mg/kg | LD50 at 48 h [3, 12]: 132 mg/kg

CCCN(CCC)C(=O)C(CCC(=O)O)NC(=O)c1ccccc1 (centres unmarked) [Xylamide, reference compound]
Percentage inhibition of free HCl ([7]; 500 mg./kg. intraperitoneal): 89% | Percentage inhibition of gastric juice ([7]; 500 mg./kg. intraperitoneal): 81% | Percentage inhibition of total acidity ([7]; 500 mg./kg. intraperitoneal): 80%

CN(C)CCC=C1c2ccccc2CCc2ccccc21 [amitryptiline, 5-(3-dimethylamino-propylidene)-10,11-dihydro-5H-dibenzo(a,d)cycloheptan hydrochloride, reference compound]
selectivity ratio [4]: 17.3 | ED50 [5]: 13 mg/kg | LD50 ([6]; Table 4): 225 mg/kg

COc1cc2[nH]nc(C(=O)NNC(C)C)c2cc1OC [Compound 7]
selectivity ratio [1]: 20 | ED50 [2]: 36 mg/kg | LD50 at 48 h [3, 12]: 720 mg/kg | Percentage inhibition of free HCl ([8]; 100 mg./kg. intraperitoneal): 85% | Percentage inhibition of gastric juice ([8]; 100 mg./kg. intraperitoneal): 80% | Percentage inhibition of total acidity ([8]; 100 mg./kg. intraperitoneal): 67%

COc1cc2[nH]nc(C(=O)NNC(C)c3ccc([N+](=O)[O-])cc3)c2cc1OC (centres unmarked) [Compound 35, 5,6-dimethoxyindazole-3-carboxylic acid-1'-(4"-nitrophenyl)-ethylhydrazide]
selectivity ratio [1]: 2000 | ED50 [2]: 2.5 mg/kg | LD50 at 48 h [3]: 5000 mg/kg | selectivity ratio [4]: 17.9 | ED50 [5]: 280 mg/kg | LD50 [6]: > 5000 mg/kg

COc1cc2[nH]nc(C(=O)NNC3CCCCCC3)c2cc1OC [Compound 28, 5,6-dimethoxyindazole-3-carboxylic acid-cycloheptylhydrazide]
selectivity ratio [1]: 4.3 | ED50 [2]: 280 mg/kg | LD50 at 48 h [3, 12]: 1200 mg/kg | Percentage inhibition of free HCl ([8]; 50 mg./kg. intraperitoneal): 47% | Percentage inhibition of free HCl ([8]; 100 mg./kg. intraperitoneal): 63% | Percentage inhibition of gastric juice ([8]; 100 mg./kg. intraperitoneal): 47% | Percentage inhibition of total acidity ([8]; 100 mg./kg. intraperitoneal): 36% | Percentage inhibition of gastric juice ([7]; 50 mg./kg. intraperitoneal): 46% | Percentage inhibition of total acidity ([7]; 50 mg./kg. intraperitoneal): 38%

CCN(CC)CCOC(=O)C(c1ccccc1)c1ccccc1.Cl [Adiphenine, 2-diethylaminoethyl-diphenylacetate hydrochloride, reference compound]
Percentage inhibition of free HCl ([8]; 100 mg./kg. intraperitoneal): 0% | Percentage inhibition of gastric juice ([8]; 100 mg./kg. intraperitoneal): 36% | Percentage inhibition of total acidity ([8]; 100 mg./kg. intraperitoneal): 0%

COc1cc2[nH]nc(C(=O)NNCc3ccccc3)c2cc1OC [Compound 30, 5,6-dimethoxyindazole-3-carboxylic acid-benzylhydrazide]
Percentage inhibition of free HCl ([8]; 25 mg./kg. i.p.): 33% | Percentage inhibition of total acidity ([8]; 25 mg./kg. i.p.): 20% | Percentage inhibition of free HCl ([8]; 100 mg./kg. intraperitoneal): 74% | Percentage inhibition of gastric juice ([8]; 100 mg./kg. intraperitoneal): 48% | Percentage inhibition of total acidity ([8]; 100 mg./kg. intraperitoneal): 56% | LD50 [9]: 2000 mg/kg | Percentage inhibition according to the occurrence of ulcer ([10]; 10 mg./kg.): 0% | Percentage inhibition according to the ulcer index ([10]; 10 mg./kg.): 14% | Percentage inhibition according to ulcer diameters 2-5 mm. ([10]; 10 mg./kg.): 14% | Percentage inhibition according to ulcer diameters 5-10 mm. ([10]; 10 mg./kg.): 0% | Percentage inhibition according to ulcer diameters <2 mm. ([10]; 10 mg./kg.): 22% | Percentage inhibition according to ulcer diameters >10 mm. ([10]; 10 mg./kg.): 0% | Percentage inhibition according to the occurrence of ulcer ([10]; 25 mg./kg.): 70% | Percentage inhibition according to the ulcer index ([10]; 25 mg./kg.): 81% | Percentage inhibition according to ulcer diameters 2-5 mm. ([10]; 25 mg./kg.): 100% | Percentage inhibition according to ulcer diameters 5-10 mm. ([10]; 25 mg./kg.): 100% | Percentage inhibition according to ulcer diameters <2 mm. ([10]; 25 mg./kg.): 93% | Percentage inhibition according to ulcer diameters >10 mm. ([10]; 25 mg./kg.): 100% | Percentage inhibition according to the occurrence of ulcer ([10]; 50 mg./kg.): 90% | Percentage inhibition according to the ulcer index ([10]; 50 mg./kg.): 97% | Percentage inhibition according to ulcer diameters 2-5 mm. ([10]; 50 mg./kg.): 100% | Percentage inhibition according to ulcer diameters 5-10 mm. ([10]; 50 mg./kg.): 100% | Percentage inhibition according to ulcer diameters <2 mm. ([10]; 50 mg./kg.): 98% | Percentage inhibition according to ulcer diameters >10 mm. ([10]; 50 mg./kg.): 100% | Percentage inhibition according to the occurrence of ulcer ([11]; 100 mg./kg.): 12% | Percentage inhibition according to the ulcer index ([11]; 100 mg./kg.): 33% | Percentage inhibition according to ulcer diameters 2-5 mm. ([11]; 100 mg./kg.): 42% | Percentage inhibition according to ulcer diameters 5-10 mm. ([11]; 100 mg./kg.): 71% | Percentage inhibition according to ulcer diameters <2 mm. ([11]; 100 mg./kg.): 0% | Percentage inhibition according to ulcer diameters >10 mm. ([11]; 100 mg./kg.): 62% | Percentage inhibition according to the occurrence of ulcer ([11]; 200 mg./kg.): 22% | Percentage inhibition according to the ulcer index ([11]; 200 mg./kg.): 53% | Percentage inhibition according to ulcer diameters 2-5 mm. ([11]; 200 mg./kg.): 85% | Percentage inhibition according to ulcer diameters 5-10 mm. ([11]; 200 mg./kg.): 67% | Percentage inhibition according to ulcer diameters <2 mm. ([11]; 200 mg./kg.): 86% | Percentage inhibition according to ulcer diameters >10 mm. ([11]; 200 mg./kg.): 100% | selectivity ratio [4]: 14.3 | ED50 [5]: 140 mg/kg | LD50 ([6]; Table 4): 2000 mg/kg | Percentage inhibition of gastric juice ([7]; 25 mg./kg. i.p.): 13% | Percentage inhibition of free HCl ([7]; 50 mg./kg. p.o.): 50% | Percentage inhibition of gastric juice ([7]; 50 mg./kg. p.o.): 36% | Percentage inhibition of total acidity ([7]; 50 mg./kg. p.o.): 39% | Percentage inhibition of free HCl ([7]; 100 mg./kg. p.o.): 76% | Percentage inhibition of gastric juice ([7]; 100 mg./kg. p.o.): 48% | Percentage inhibition of total acidity ([7]; 100 mg./kg. p.o.): 63% | Percentage inhibition of free HCl ([7]; 200 mg./kg. i.p.): 72% | Percentage inhibition of gastric juice ([7]; 200 mg./kg. i.p.): 63% | Percentage inhibition of total acidity ([7]; 200 mg./kg. i.p.): 64%

COc1ccc(CC(C)NNC(=O)c2n[nH]c3cc(OC)c(OC)cc23)cc1OC (centres unmarked) [Compound 37, 5,6-dimethoxyindazole-3-carboxylic acid-2'-(3'-/3",4"-dimethoxyphenyl/)-propylhydrazide]
selectivity ratio [1]: 310 | ED50 [2]: 8.7 mg/kg | LD50 at 48 h [3, 12]: 2700 mg/kg
